Tested on: βarr1/2
Experiment: DSF with IP6 and/or Cmpd-5
Type: binding
Procedure: DSF assay was performed to identify β-arrestin-binding small molecules from the drug-like compound library (DDLC) described above. The screen was conducted using the StepOnePlus Real-Time PCR System (Applied Biosystems) with the fluorescent reporter probe SYPRO Orange (Thermo Fisher Scientific) in a 96-well format. Proteins were buffered in 20 mM HEPES (pH 7.5) with 100 mM NaCl. Small molecules (100 μM) were screened with either βARR1 or βARR2 (5 μM). DMSO was used as a vehicle control, and V2Rpp (50 μM) served as a positive control.
For DSF experiments involving the three positive control ligands (V2Rpp, IP6 and heparin, each at 50 μM) binding to β-arrestins, HEPES buffer was used as the vehicle control. Excitation and emission filters for SYPRO Orange were set to 475 nm and 580 nm, respectively. The temperature was increased by 0.5 °C every 30 s, from 25 °C to 99 °C, with fluorescence readings taken at each interval. Raw DSF data were analysed using Applied Biosystems Protein Thermal Shift Software. Fluorescence intensities were plotted as a function of temperature, and the midpoint of transition, or melting temperature (Tm), was calculated by plotting the first derivative of fluorescence emission as a function of temperature (dF/dT). […]

For `C=C1C(=O)[C@]23[C@H](O)[C@H]1CC[C@H]2[C@@]12CO[C@]3(O)[C@@H](O)[C@@H]1C(C)(C)CC[C@@H]2O` [Cmpd-5, (1S,4aR,5S,6S,6aR,9S,11aS,11bS,14R)-1,5,6,14-tetrahydroxy−4,4-dimethyl-8-methylenedecahydro-1H-6,11b-(epoxymethano)-6a,9-methanocyclohepta[a]naphthalen-7(8H)-one], the “effect on IP6-stabilized β-arrestin state by DSF” value was “shifts βarr1/2 away from the IP6-stabilized active state”.
